These results are taken from US8501911B2, “Methods of reducing inflammation and mucus hypersecretion” (Biomarck Pharmaceuticals, Ltd, priority 1999, dated 2013).

Assay [1] deals with NHBE cells. Briefly: UTP-induced mucin secretion from NHBE cells (ELISA). The class given is cell-based, human. The following applies: for activity at 100 µM: Homo sapiens, NHBE. As to the method: In Results-I-1D, NHBE cells were preincubated with the indicated inhibitor for 15 min and then stimulated with 100 μM UTP for 2 h. Secreted mucin in response to the treatment was collected and assayed by ELISA. Data are presented as mean±S.E. (n=6 at each point).
UTP is a well defined pathophysiologically relevant mucin secretagogue. Lethem ct al., Am. J. Respir. Cell Mol. Biol. 9, 315-322 (1993). […] To determine whether PKC and PKG were involved in regulation of mucin secretion in response to a pathophysiological stimulus, effects of PKC/PKG inhibitors on UTP-induced mucin secretion were investigated. NHBE cells were preincubated with various inhibitors for 15 min and then exposed to UTP (100 μM) plus the inhibitor for 2 h. The secreted mucin was measured by ELISA. […] Apparently, mucin secretion in NHBE cells may be regulated by a signaling mechanism involving both PKC and PKG.
Peptide Blocking Studies—NHBE cells were preincubated with either the MANS or the RNS peptide (1-100 μM) for 15 min, and then PMA (100 nM)+8-Br-cGMP (1 μM) or UTP (100 μM) was added, and cells were incubated for an additional 15 min or 2 h. respectively. Mucin secretion was measured by ELISA and experimental results are designated as Results-I-2B-1 and Results-I-2B-2, as follows.
PP2A is an essential component of the mucin secretory pathway. NHBE cells were preincubated with the indicated concentration of fostriecin, okadaic acid (500 nM), or medium alone for 15 min and then stimulated with PMA (100 nM)+8-Br-cGMP (1 μM) for 15 min or with UTP (100 μM) for 2 h. Secreted mucin was measured by ELISA. […] Thus, dephosphorylation of MARCKS by a PKG-activated PP2A appears to be an essential component of the signaling pathway leading to mucin granule exocytosis.
(§1) Measurement of Mucin Secretion by ELISA—Before collection of “base line” and “test” mucin samples, the accumulated mucus at the apical surface of the cells was removed by washing with phosphate-buffered saline, pH 7.2. To collect the base-line secretion, cells were incubated with medium alone, and secreted mucin in the apical medium was collected and reserved. Cells were rested for 24 h and then exposed to medium containing the selected stimulatory and/or inhibitory reagents (or appropriate controls), after which secreted mucin was collected and reserved as the test sample. Incubation times for the base line and the test were the same but varied depending on the test reagent utilized. Both base line and test secretions were analyzed by ELISA using an antibody capture method as known in the art. See, e.g., Harlow et al., Antibodies: A Laboratory Manual, pp. 570-573, Cold Spring Harbor Laboratory, Cold Spring Harbor, N.Y. (1988). The primary antibody for this assay was 17Q2 (Babco, Richmond, Calif.), a monoclonal antibody that reacts specifically with a carbohydrate epitope on human airway mucins. The ratio of test/base-line mucin, which is similar to a “secretory index”, was used to quantify mucin secretion, allowing each culture dish to serve as its own control and thus, minimizing deviation caused by variability among culture wells. Wright et al., Am. J. Physiol. 271, L854-L861 (1996). Levels of mucin secretion were reported as percentage of the medium control.
These experiments were carried out similarly to those described in Example 7. To test for stimulated secretion, the cells were exposed apically and basolaterally to uridine 5′-triphosphate (UTP) at a concentration of 0.1 mM in media. Cells were pre-incubated for 15 minutes with the MANS peptide and test cultures were then co-incubated with the MANS peptide and UTP for 45 minutes.
NHBE cells were pre-incubated with okadaic acid (500 nM) for 15 min at 37° C./5% CO2, then stimulated with PMA (100 nM)+8-Br-cGMP (1 μM) for 15 min, or with UTP (0.1 mM) for 2 hours. Secreted mucin in the apical medium was collected and assayed by ELISA. […]
Background: An ELISA detects its analyte on a solid surface through an enzyme-linked reagent.

For the next assay, the system named is human neutrophils. The assay is described as follows: Human neutrophil chemotactic migration assay. Type of assay: cell-based. The following applies: test peptide 50 μM; fMLP 100 nM; 0 = inactive. As to the method:
Human neutrophils were isolated from heparinized whole blood collected from healthy adult donors via cephalic venipuncture by a slightly modified method as described by Akasaki et al., 1999 (Akasaki T, Koga H, and Sumimoto H., Phosphoinositide 3-kinase-dependent and -independent activation of the small GTPase Rac2 in human neutrophils, J. Biol. Chem. 274:18055-18059, 1999). The blood was mixed with dextran (final concentration 1.4% dextran) and then allowed to settle for 60 minutes, after which time the leukocyte rich plasma was collected and layered onto 5 mL of Ficoll-Paque PLUS in 15 ml, conical tubes. The plasma was centrifuged at 1800 rpm for 20 minutes at room temperature. The residual erythrocytes were lysed utilizing a hypotonic saline and the remaining neutrophils were re-suspended in Hank's balanced salt solution containing 20 mM HEPES and 8.9 mM sodium bicarbonate without calcium or magnesium (HBSS), yielding neutrophils that were greater than 98% pure and greater than 99% viable.
Neutrophil migration assay was performed according to the method described by Frevert C W, Wong V A, Goodman R B, Goodwin R, and Martin T R., Rapid fluorescence-based measurement of neutrophil migration in vitro, J. Immunol. Methods, 213:41-52, 1998. Human neutrophils were labeled with the fluorescent dye calcein for 30 minutes at room temperature. Cells were then washed and resuspended in a migration buffer containing HBSS with 2% FCS. Cells were treated with buffer alone or with the indicated test peptide (50 μM) for 30 minutes at 37° C. Treated cells (1×10^4 cells) were then placed on the upper side of a ChemoTx® chemotaxis plate (Neuroprobe, Gaithersburg, Md.) membrane (2 μm pore size). Lower wells of the plate were filled with migration buffer alone or with buffer containing fMLP (100 nM), LTB4 (100 nM), or PAF (100 nM). Wells containing 1×10^4 labeled cells were used as standards to calculate migration percentage. Cells were allowed to migrate for 1 hour at 37° C. After incubation, cells on the top of the filter were washed away with PBS. Followed by this, 0.5 mM EDTA was added to the top of the filter for 5 min to detach adherent cells and the membrane was again washed. The plate was then centrifuged at 1000 rpm for 1 min. The filter was removed and the fluorescence was measured in the lower wells (485 nm excitation, 530 nm emission wavelength) using an fMax fluorescence plate reader (Molecular Devices, Sunnyvale, Calif.). Percent migration was determined by dividing the fluorescence of each well by the fluorescence of the standard wells containing 1×10^4 labeled cells. A lesser number of migrated neutrophils in the bottom compartment is indicative of the test peptide being an inhibitor of inflammation.

Another assay deals with MARCKS. The assay is described as follows: MARCKS phosphorylation in NHBE cells (radiolabeled immunoprecipitation assay). The class given is cell-based, human. The protocol: NHBE cells were labeled with [^32 P]orthophosphate and then exposed to the reagents: (a) Rp-8-Br-PET-cGMP (100 μM); (b) okadaic acid (500 nM); (c) 8-Br-cGMP (1 μM); and (d) PMA (100 nM). MARCKS phosphorylation in response to the treatments was evaluated by immunoprecipitation assay.
To reveal molecular events by which MARCKS links kinase activation to mucin secretion, phosphorylation of MARCKS in response to PKC/PKG activation was investigated in depth, and results are presented as Results-I-4A. […] Once phosphorylated, MARCKS was translocated from the plasma membrane to the cytoplasm. More specifically, the activation of PKC results in MARCKS phosphorylation in NHBE cells. Cells were labeled with [^32 P]orthophosphate for 2 h and then exposed to the stimulatory and/or inhibitory reagents (see below). MARCKS phosphorylation in response to the treatments was evaluated by immunoprecipitation with the following specifics, designated Results-I-4A:
[^32P]phosphate, cells were preincubated for 2 h in phosphate-free Dulbecco's modified Eagle's medium containing 0.2% bovine serum albumin and then labeled with 0.1 mCi/ml [^32 P]orthophosphate (9000 Ci/mmol, PerkinElmer Life Sciences) for 2 h. For labeling with [^3H]myristic acid or ^3H-amino acids, cells were incubated overnight in medium containing 50 μCi/ml [^3H]myristic acid (49 Ci/mmol, PerkinElmer Life Sciences) or 0.2 mCi/ml [^3H]leucine (159 Ci/mmol, PerkinElmer Life Sciences) plus 0.4 mCi/ml [^3H]proline (100 Ci/mmol, PerkinElmer Life Sciences). Following labeling, cells were exposed to stimulatory reagents for 5 min. When an inhibitor was used, cells were preincubated with the inhibitor for 15 min prior to stimulation. At the end of the treatments, cells were lysed in a buffer containing 50 mM Tris-HCl (pH 7.5), 150 mM NaCl, 1 mM EDTA, 10% glycerol, 1% Nonidet P-40, 1 mM phenylmethylsulfonyl fluoride, 1 mM benzamidine, 10 μg/ml pepstatin A, and 10 μg/ml leupeptin. Trichloroacetic acid precipitation and scintillation counting may determine the radiolabeling efficiency in each culture. Immunoprecipitation of MARCKS protein was carried out according to the method of Spizz and Blackshear using cell lysates containing equal counts/min. Spizz et al., J. Biol. Chem. 271, 553-562 (1996). Precipitated proteins were resolved by 8% SDS-polyacrylamide gel electrophoresis and visualized by autoradiography. Anti-human MARCKS antibody (2F12) and nonimmune control antibody (6F6) were used in this assay.
Phosphorylation of MARCKS by PMA was attenuated by Calphostin C (500 nM). NHBE cells also contained substantial amounts of cGMP-dependent protein kinase type 1α (PKG-1α) activity, which was localized to the cytosolic fraction. […] In addition, the phosphorylation of MARCKS induced by PMA was reversed by incubation with 8-Br-cGMP (10 μM).

Assay [2] relates to NHBE cells. The assay is described as follows: PMA+8-Br-cGMP-induced mucin secretion from NHBE cells (ELISA). Type of assay: cell-based, human. Conditions: inhibitor 500 nM, 15 min preincubation, then PMA 100 nM+8-Br-cGMP 1 μM 15 min. As to the method:
Peptide Blocking Studies—NHBE cells were preincubated with either the MANS or the RNS peptide (1-100 μM) for 15 min, and then PMA (100 nM)+8-Br-cGMP (1 μM) or UTP (100 μM) was added, and cells were incubated for an additional 15 min or 2 h. respectively. Mucin secretion was measured by ELISA and experimental results are designated as Results-I-2B-1 and Results-I-2B-2, as follows. […]
as §1
MARCKS-related Peptides—Both the myristoylated N-terminal sequence (MANS) and the random N-terminal sequence (RNS) peptides were synthesized at Genemed Synthesis, Inc. (San Francisco, Calif.), then purified by high pressure liquid chromatography (>95% pure), and confirmed by mass spectroscopy with each showing one single peak with an appropriate molecular mass. The MANS peptide consisted of sequence identical to the first 24 amino acids of MARCKS, i.e. the myristoylated N-terminal region that mediates MARCKS insertion into membranes, MA-[…] (SEQ ID NO: 1) (where MA=N-terminal myristate chain). The corresponding control peptide (RNS) contained the same amino acid composition as the MANS but arranged in random order, MA-[…] (SEQ ID NO: 26). The presence of the hydrophobic myristate moiety in these synthetic peptides enhances their permeability to the plasma membranes, enabling the peptides to be taken up readily by cells. To determine the effects of these peptides on mucin secretion, cells were preincubated with the peptides for 15 min prior to addition of secretagogues, and mucin secretion was then measured by ELISA.
Antisense Oligonucleotides—MARCKS antisense oligonucleotide and its corresponding control oligonucleotide were synthesized at Biognostik GmbH (Gottingen, Germany). NHBE cells were treated with 5 μM antisense or control oligonucleotide apically for 3 days (in the presence of 2 μg/ml lipofectin for the first 24 h). Cells were then incubated with secretagogues, and mucin secretion was measured by ELISA. Total RNA and protein were isolated from treated cells. MARCKS mRNA was assessed by Northern hybridization according to conventional procedures using human MARCKS cDNA as a probe. MARCKS protein level was determined by Western blot using purified anti-MARCKS IgG1 (clone 2F12) as the primary detection antibody.
The effect on mucus secretion of a myristoylated peptide containing the first 24 amino acids of the human MARCKS protein (MANS; myristoylated N-terminal sequence; SEQ ID NO: ) was tested. Cultured normal human bronchial epithelial cells as described above were used. […]

Where [3] appears, read: inhibitor 500 nM, 15 min preincubation, then UTP 100 μM 2 h.

Values joined by “and” are separate entries in the source; they are usually repeats but may differ in a detail not shown here. Identical values can stand only once. Like-named read-outs stand apart in the source and are kept apart here. Residues, ends and D or L forms follow the SMILES beside them. *: point of attachment. Myristoyl = CCCCCCCCCCCCCC(=O)*

Turning to `O=C1C(Nc2ccccc2)=CC(=O)c2ncccc21` [LY83583], the “Mucin secretion as percent of control” value with NHBE cells [1] (inhibitor 50 μM, 15 min preincubation, then UTP 100 μM 2 h) is 111% and 112%.

`CCCCCCCCCCCCCC(=O)NCC(=O)N[C@@H](C)C(=O)N[C@@H](CCC(N)=O)C(=O)N[C@@H](Cc1ccccc1)C(=O)N[C@@H](CO)C(=O)N[C@@H](CCCCN)C(=O)N[C@H](C(=O)N[C@@H](C)C(=O)O)[C@@H](C)O` [SEQ ID NO: 17, N-myristoyl-GAQFSKTA] (Myristoyl-GAQFSKTA-OH; C-terminus assumed): the “Neutrophil Migration (% Inhibition), fMLP” value with human neutrophils was 92.2%.

For the compound Calphostin C, the “Mucin secretion as percent of control” value in the assay on NHBE cells [1] (setting [3]) came out at 120%; in the assay with NHBE cells [1] (inhibitor 500 nM, 15 min preincubation, then UTP 100 μM 2 h, listed as calphostin C), 121%. Further, the “MARCKS phosphorylation (band in immunoprecipitation assay)” value in the assay with MARCKS (inhibitor 500 nM + 100 nM PMA) is “attenuated”; with MARCKS (inhibitor 500 nM alone), “dark band”.

Consider `CCCCCCOC(=O)[C@]1(O)C[C@@H]2O[C@@]1(C)n1c3ccccc3c3c4c(c5c6ccccc6n2c5c31)C(=O)NC4` [KT5720], for which the “Mucin secretion as percent of control” value in the assay with NHBE cells [1] (setting [3]) was 157% and 160%. For the same compound, in the assay with NHBE cells [2], the “Mucin secretion as % of control” value was “did not affect”.

As to `O=c1ccn([C@@H]2O[C@H](COP(=O)(O)OP(=O)(O)OP(=O)(O)O)[C@@H](O)[C@H]2O)c(=O)[nH]1` [UTP, uridine 5′-triphosphate], the activity at 100 µM amounted to 159% with NHBE cells [1] (0.75 h, 0.1 mM UTP 45 min, no peptide (Results-M-2), read-out: Mucin secretion, % of control levels) and 159% in the assay on NHBE cells [1] (2 h, UTP 100 μM (0.1 mM) 2 h, no inhibitor, read-out: Mucin secretion as percent of control). Further, in the assay on NHBE cells [1] (UTP 100 μM (0.1 mM) 2 h, no inhibitor), the “Mucin secretion as percent of control” value is 156% and 161% and 152%.
